One experiment deals with human ATX (Homo sapiens (Human), UniProt Q13822). Briefly: Human ATX enzyme inhibition assay (fluorescence quenching, MR121 substrate). The class given is biochemical. On the procedure:
Human ATX Enzyme Inhibition Assay
ATX inhibition was measured by a fluorescence quenching assay using a specifically labeled substrate analogue (MR121 substrate). To obtain this MR121 substrate, BOC and TBS protected 6-amino-hexanoic acid (R)-3-({2-[3-(2-{2-[2-(2-amino-ethoxy)-ethoxy]-ethoxy}-ethoxy)-propionylamino]-ethoxy}-hydroxy-phosphoryloxy)-2-hydroxy-propyl ester (Ferguson et al., Org Lett 2006, 8 (10), 2023) was labeled with MR121 fluorophore (CAS 185308-24-1, 1-(3-carboxypropyl)-11-ethyl-1,2,3,4,8,9,10,11-octahydro-dipyrido[3,2-b:2′,3′-i]phenoxazin-13-ium) on the free amine of the ethanolamine side and then, after deprotection, subsequently with tryptophan on the side of the aminohexanoic acid.
(§1) Assay working solutions were made as follows:
Assay buffer (50 mM Tris-HCl, 140 mM NaCl, 5 mM KCl, 1 mM CaCl2, 1 mM MgCl2, 0.01% Triton-X-100, pH 8.0;
ATX solution: ATX (human His-tagged) stock solution (1.08 mg/mL in 20 mM bicine, pH 8.5, 0.15 M NaCl, 10% glycerol, 0.3% CHAPS, 0.02% NaN3), diluted to 1.4-2.5× final concentration in assay buffer;
MR121 substrate solution: MR121 substrate stock solution (800 μM MR121 substrate in DMSO), diluted to 2-5× final concentration in assay buffer.
Test compounds (10 mM stock in DMSO, 8 μL) were obtained in 384 well sample plates (Corning Costar #3655) and diluted with 8 μL DMSO. Row-wise serial dilutions were made by transferring 8 μL cpd solution to the next row up to row O. The compound and control solutions were mixed five times and 2 μL were transferred to 384 well assay plates (Corning Costar #3702). Then, 15 μL of 41.7 nM ATX solution was added (30 nM final concentration), mixed five times and then incubated for 15 minutes at 30° C. 10 μL of MR121 substrate solution was added (1 μM final concentration), mixed 30 times and then incubated for 15 minutes at 30° C.

The target in experiment [1] is Human carbonic anhydrase II (hCA-II) (Homo sapiens (Human), UniProt P00918). Briefly: Human carbonic anhydrase-II inhibition assay (absorbance, 4-nitrophenyl acetate substrate). The class given is biochemical. On the procedure:
Human Carbonic Anhydrase-II Inhibition Assay
Human carbonic anhydrase II (hCA-II) inhibition was measured by an absorbance method using 4-nitrophenyl acetate (4-NPA) as its substrate. 4-NPA can be catalyzed by active hCA II via a zinc-hydroxide mechanism. The nitrophenolate in the products can be ionized to generate a bright yellow anion with high absorbance at 348 to 400 nm, as reported in the literature (Armstrong et al., J. Biol. Chem. 1966, 241, 5137-5149). OD340 nm was chosen for detecting hCA II substrate conversion.
as §1
Assay buffer: 50 mM MOPS, 33 mM Na2SO4, 1 mM EDTA, 0.5 mg/ml BSA, pH 7.5;
Enzyme solution: hCA-II (human, full length) stock solution (1.0 mg/mL in 20 mM HEPES, 50 mM NaCl, pH 7.4), diluted to 2133× final concentration in assay buffer;
4-NPA substrate solution: 4-NPA substrate stock solution (250 mM in DMSO, stored at −20° C.), diluted to 50× final concentration in deionized water.
Test compounds (10 mM stock in DMSO, 100 μL) were obtained in […] sample plates (Corning Costar #3655) and diluted to 0.5 mM. Column-wise serial dilutions were made by transferring 20 μL compound solutions to the next column, from column 3 up to 22. After this, 1.2 μL were transferred to 384 well assay plates (Corning Costar #3701). Then 30 μL of 16 nM hCA II solution was added (8 nM final concentration), mixed five times. 30 μL of 4-NPA substrate solution was added (2.5 mM final concentration), mixed five times. Absorbance at 340 nm was then measured immediately as time zero. The assay plates were incubated at room temperature for 1 hour and then measured as time 1 hour (Perkin Elmer EnVision 2103; Filter: Photometric 340; Light intensity 60%; Number of flashes: 10). IC50 values and Ki values were calculated from these readouts.

The mark [2] stands for this setting: human His-tagged ATX 30 nM, MR121 substrate 1 μM, 30° C., read-out: ATX IC50.
The mark [3] stands for this setting: hCA II 8 nM, 4-NPA 2.5 mM, absorbance 340 nm, room temperature 1 hour, read-out: CA-II IC50.

Read-outs that look alike come from different tables or passages of the source.

This passage reports IC50 results from patent US10647719B2, “Bicyclic compounds as dual ATX/CA inhibitors” (Hoffmann-La Roche Inc., priority 2015, dated 2020).

The term IC50 denotes the concentration that inhibits the measured activity by half. Turning to `CC(C)(C)C(=O)Nc1cc(C(F)(F)F)cnc1COC(=O)N1CC2=C(C1)CN(C(=O)c1ccc(S(N)(=O)=O)cc1)C2` [Example 1.00, [3-(2,2-Dimethylpropanoylamino)-5-(trifluoromethyl)pyridin-2-yl]methyl 2-(4-sulfamoylbenzoyl)-1,3,4,6-tetrahydropyrrolo[3,4-c]pyrrole-5-carboxylate], the concentration for half-maximal inhibition (IC50) turned out to be 6 nM on human ATX (setting [2]) and 14 nM in experiment [1] (setting [3]).

Consider `Cc1nnn(Cc2cc(C#N)ccc2CCC(=O)N2CC3=C(C2)CN(C(=O)c2ccc(S(N)(=O)=O)cc2F)C3)n1` [Example 3.06, 4-[2-[3-[4-cyano-2-[(5-methyltetrazol-2-yl)methyl]phenyl]propanoyl]-1,3,4,6-tetrahydropyrrolo[3,4-c]pyrrole-5-carbonyl]-3-fluorobenzenesulfonamide], for which the concentration for half-maximal inhibition (IC50) amounted to 2 nM on human ATX and 16 nM in experiment [1].

Regarding `CC(C)(C)C(=O)Nc1cc(C(F)(F)F)cnc1COC(=O)N1CC2=C(C1)CN(C(=O)c1ncc(S(N)(=O)=O)cc1F)C2` [Example 1.32, [3-(2,2-dimethylpropanoylamino)-5-(trifluoromethyl)pyridin-2-yl]methyl 2-(3-fluoro-5-sulfamoylpyridine-2-carbonyl)-1,3,4,6-tetrahydropyrrolo[3,4-c]pyrrole-5-carboxylate], the results for the 50% inhibitory concentration (IC50) (at human ATX; in experiment [1]) were 5 nM and 2.5 nM, respectively.

For `CC(C)(C)C(=O)Nc1cc(C(F)(F)F)cnc1COC(=O)N1CC2=C(C1)CN(C(=O)c1c(F)cc(S(N)(=O)=O)cc1F)C2` [Example 1.11, [3-(2,2-dimethylpropanoylamino)-5-(trifluoromethyl)pyridin-2-yl]methyl 2-(2,6-difluoro-4-sulfamoylbenzoyl)-1,3,4,6-tetrahydropyrrolo[3,4-c]pyrrole-5-carboxylate], the values for the half-inhibitory concentration (IC50) (at human ATX (setting [2]); in experiment [1] (setting [3])) were 9 nM and 27 nM, respectively.

Consider `CC(C)(C)C(=O)Nc1cccnc1COC(=O)N1CC2=C(C1)CN(C(=O)c1ccc(S(N)(=O)=O)cc1F)C2` [Example 1.19, [3-(2,2-dimethylpropanoylamino)pyridin-2-yl]methyl 2-(2-fluoro-4-sulfamoylbenzoyl)-1,3,4,6-tetrahydropyrrolo[3,4-c]pyrrole-5-carboxylate], for which the IC50 is 10 nM on human ATX (setting [2]) and 4 nM in experiment [1] (setting [3]).

With `NS(=O)(=O)c1ccc(C(=O)N2CC3=C(CN(C(=O)/C=C/c4ccc(OC(F)(F)F)cc4)C3)C2)nc1` [Example 3.03, 6-[2-[(E)-3-[4-(trifluoromethoxy)phenyl]prop-2-enoyl]-1,3,4,6-tetrahydropyrrolo[3,4-c]pyrrole-5-carbonyl]pyridine-3-sulfonamide], the values for the IC50 (on human ATX; in experiment [1]) were 4 nM and 17 nM, respectively.

Regarding `CC(C)(C)C(=O)Nc1cc(C(F)(F)F)cnc1COC(=O)N1CC2=C(C1)CN(C(=O)c1ccc(S(N)(=O)=O)c(Cl)c1)C2` [Example 1.02, [3-(2,2-dimethylpropanoylamino)-5-(trifluoromethyl)pyridin-2-yl]methyl 2-(3-chloro-4-sulfamoylbenzoyl)-1,3,4,6-tetrahydropyrrolo[3,4-c]pyrrole-5-carboxylate], the half-inhibitory concentration (IC50) at human ATX (setting [2]) is 5 nM; in experiment [1] (setting [3]) it was 10 nM.

`NS(=O)(=O)c1ccc(C(=O)N2CC3=C(CN(C(=O)COc4ccc(OC(F)(F)F)cc4)C3)C2)nc1` [Example 3.04, 6-[2-[2-[4-(trifluoromethoxy)phenoxy]acetyl]-1,3,4,6-tetrahydropyrrolo[3,4-c]pyrrole-5-carbonyl]pyridine-3-sulfonamide]: the half-maximal inhibitory concentration (IC50) against human ATX is 7 nM; in experiment [1] it was 17 nM.

With `CC(C)(C)C(=O)Nc1cc(Cl)c(Cl)nc1COC(=O)N1CC2=C(C1)CN(C(=O)c1c(F)cc(S(N)(=O)=O)cc1F)C2` [Example 1.31, [5,6-dichloro-3-(2,2-dimethylpropanoylamino)pyridin-2-yl]methyl 2-(2,6-difluoro-4-sulfamoylbenzoyl)-1,3,4,6-tetrahydropyrrolo[3,4-c]pyrrole-5-carboxylate], the values for the half-inhibitory concentration (IC50) (against human ATX; in experiment [1]) were 10 nM and 11.5 nM, respectively.

Turning to `CC(C)(C)C(=O)Nc1cc(C(F)(F)F)cnc1COC(=O)N1CC2=C(C1)CN(C(=O)c1ccc(S(N)(=O)=O)cc1F)C2` [Example 1.04, [3-(2,2-dimethylpropanoylamino)-5-(trifluoromethyl)pyridin-2-yl]methyl 2-(2-fluoro-4-sulfamoylbenzoyl)-1,3,4,6-tetrahydropyrrolo[3,4-c]pyrrole-5-carboxylate], the concentration for half-maximal inhibition (IC50) on human ATX (setting [2]) was 4 nM; in experiment [1] (setting [3]), 5 nM.

Turning to `CN1CCC(COc2cc(C(=O)N3CC4=C(C3)CN(C(=O)c3ccc(S(N)(=O)=O)c(F)c3F)C4)cc(C3CC3)n2)CC1` [Example 1.34, 4-[5-[2-cyclopropyl-6-[(1-methylpiperidin-4-yl)methoxy]pyridine-4-carbonyl]-1,3,4,6-tetrahydropyrrolo[3,4-c]pyrrole-2-carbonyl]-2,3-difluorobenzenesulfonamide], the values for the IC50 (against human ATX; in experiment [1]) were 12 nM and 1 nM, respectively.

In the case of `CC(C)(C)C(=O)Nc1cc(C#N)c(Cl)cc1COC(=O)N1CC2=C(C1)CN(C(=O)c1ccc(S(N)(=O)=O)cn1)C2` [Example 2.00, [5-Chloro-4-cyano-2-(2,2-dimethylpropanoylamino)phenyl]methyl 2-(5-sulfamoylpyridine-2-carbonyl)-1,3,4,6-tetrahydropyrrolo[3,4-c]pyrrole-5-carboxylate], the values for the IC50 (on human ATX; in experiment [1]) were 1 nM and 24 nM, respectively.

For `CC(C)(C)C(=O)Nc1cc(Cl)cnc1COC(=O)N1CC2=C(C1)CN(C(=O)c1c(F)cc(S(N)(=O)=O)cc1F)C2` [Example 1.15, [5-chloro-3-(2,2-dimethylpropanoylamino)pyridin-2-yl]methyl 2-(2,6-difluoro-4-sulfamoylbenzoyl)-1,3,4,6-tetrahydropyrrolo[3,4-c]pyrrole-5-carboxylate], the values for the half-inhibitory concentration (IC50) (at human ATX (setting [2]); in experiment [1] (setting [3])) were 8 nM and 12.9 nM, respectively.

For `NS(=O)(=O)c1ccc(C(=O)N2CC3=C(CN(C(=O)CCc4ccc(OC(F)(F)F)cc4)C3)C2)c(F)c1` [Example 3.02, 3-fluoro-4-[2-[3-[4-(trifluoromethoxy)phenyl]propanoyl]-1,3,4,6-tetrahydropyrrolo[3,4-c]pyrrole-5-carbonyl]benzenesulfonamide], the figures for the half-inhibitory concentration (IC50) (at human ATX; in experiment [1]) were 6 nM and 5 nM, respectively.

As for `NS(=O)(=O)c1ccc(C(=O)N2CC3=C(CN(C(=O)c4cc(OCC5CCOCC5)nc(C5CC5)c4)C3)C2)c(F)c1` [Example 1.08, 4-[5-[2-cyclopropyl-6-(oxan-4-ylmethoxy)pyridine-4-carbonyl]-1,3,4,6-tetrahydropyrrolo[3,4-c]pyrrole-2-carbonyl]-3-fluorobenzenesulfonamide], the values for the concentration for half-maximal inhibition (IC50) (on human ATX (setting [2]); in experiment [1] (setting [3])) were 8 nM and 6 nM, respectively.

On to `Cc1nnn(Cc2cc(C(F)(F)F)ccc2CCC(=O)N2CC3=C(C2)CN(C(=O)c2ccc(S(N)(=O)=O)cc2F)C3)n1` [Example 1.10, 3-fluoro-4-(5-(3-(2-((5-methyl-2H-tetrazol-2-yl)methyl)-4-(trifluoromethyl)phenyl)propanoyl)-1,2,3,4,5,6-hexahydropyrrolo[3,4-c]pyrrole-2-carbonyl)benzenesulfonamide], for which the IC50 at human ATX (setting [2]) is 8 nM; in experiment [1] (setting [3]), 19 nM.
